According to publication PMC4177392, “Modulation of Cytochrome P450 Metabolism and Transport across Intestinal Epithelial Barrier by Ginger Biophenolics” (PLoS ONE, 2014):
≈ marks a conversion by molar mass, not a printed value.

Tests used:
[1] = target: CYP2C9 (Homo sapiens, UniProt P11712); test: CYP2C9 inhibition in human liver microsomes (substrate diclofenac)
Description: (§1) Stock solution for each CYP specific probe substrate was prepared in such a way that the final concentration is below the reported Km value.
(§2) A microsome-buffer-substrate mixture (MBS mix) was prepared for each isozyme by pre-mixing appropriate volumes of sodium phosphate buffer (pH 7.4, 50 mM), microsomes and substrate (Table S2 in File S1). 179 µL of MBS mix was transferred to 96-well reaction plate to which 1 µL of inhibitor stock solution was added to achieve the final target inhibitor concentration. The reaction plate was pre-incubated for 10 min at 37°C followed by reaction initiation by addition of 20 µL of 10 mM NADPH solution. The reaction plate was then incubated at 37°C for a predetermined time period following which it was quenched with 200 µL ACN for all CYPs and 200 µL 1% formic acid in water∶ACN (70∶30) for CYP1A2. In all cases, the final incubations after addition of substrate and inhibitor contained 0.1% DMSO (v/v), and the total organic solvent (DMSO and ACN) content was less than or equal to 1% (v/v). The details of final substrate concentration, incubation time, microsomal protein concentration in the reaction mixtures and the metabolites monitored for each isozyme tested are presented in Table S3 in File S1.
All samples were processed using protein precipitation method and analyzed by employing positive (for all CYPs) and negative (for CYP2A6, 2C19 and 2E1) ionization mode in liquid chromatography tandem mass spectrometry (API4000, Applied Biosystems, USA). The peak area ratio of analyte to IS was used for calculations. An isocratic method comprising 5 mM ammonium formate and ACN (40∶60) with 0.05% formic acid was used for elution. For CYP2C19, a mobile phase consisting of 5 mM ammonium formate and ACN (30∶70) was used. The analytes and internal standards were retained on BDS Hypersil Phenyl (150×4.6 mm, 5 µ, Thermo, USA) column. A flow rate of 0.5 mL/min (CYP1A2), 0.6 mL/min (CYP2C19, CYP2E1), 0.7 mL/min (CYP2C9), 0.8 mL/min (CYP2A6, CYP3A), 1.0 mL/min (CYP2B6, CYP2C8, CYP2D6) was maintained using Shimadzu Prominence solvent delivery system (LC-20AD). The mobile phase was degassed using degasser (DGU-20A3), samples were loaded into autosampler (SIL-HTc) and the column temperature was maintained at 40°C by column oven (CTO-20A). Injection volumes for the samples were as follows: 5 µL (CYP1A2, CYP2D6, and CYP3A), 10 µL (CYP2B6, CYP2C8, and CYP2E1) and 20 µL (CYP2A6, CYP2C9, and CYP2C19). Data was collected and processed using Sciex Analyst 1.4.2. […]
(§3) The data was analysed using 4PL (parameter logistic model), 3PLFB (bottom fixed), 3PLFT (top fixed), 2PL (top and bottom fixed), and the relative IC50 was with lowest standard error was further manipulation. Absolute IC50 was calculated from this relative IC50 by using the equation below: [drawing 3]

[2] = target: T1, CYP2B6 (Homo sapiens, UniProt P20813); test: CYP2B6 inhibition in human liver microsomes (substrate bupropion); type: in vitro ADME
T1 sequence (P20813 1-491): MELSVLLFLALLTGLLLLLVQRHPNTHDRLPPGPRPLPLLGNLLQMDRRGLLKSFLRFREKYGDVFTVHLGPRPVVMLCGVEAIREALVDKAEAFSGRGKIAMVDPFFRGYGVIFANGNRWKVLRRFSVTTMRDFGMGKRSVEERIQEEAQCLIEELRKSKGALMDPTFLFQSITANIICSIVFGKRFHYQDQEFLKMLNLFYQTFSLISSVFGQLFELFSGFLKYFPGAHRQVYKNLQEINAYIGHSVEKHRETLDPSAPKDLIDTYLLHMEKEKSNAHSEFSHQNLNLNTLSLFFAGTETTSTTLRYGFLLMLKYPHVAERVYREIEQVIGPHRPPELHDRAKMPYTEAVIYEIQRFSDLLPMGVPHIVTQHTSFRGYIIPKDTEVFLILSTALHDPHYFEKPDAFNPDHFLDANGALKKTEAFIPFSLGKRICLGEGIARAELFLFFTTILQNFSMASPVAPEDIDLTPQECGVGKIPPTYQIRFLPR
Description: (§4) The highest concentration of GE used in the assay was 500 µg/mL equivalent. Stock solution for each CYP specific probe substrate was prepared in such a way that the final concentration is below the reported Km value.
(§5) A microsome-buffer-substrate mixture (MBS mix) was prepared for each isozyme by pre-mixing appropriate volumes of sodium phosphate buffer (pH 7.4, 50 mM), microsomes and substrate (Table S2 in File S1). 179 µL of MBS mix was transferred to 96-well reaction plate to which 1 µL of inhibitor stock solution was added to achieve the final target inhibitor concentration. The reaction plate was pre-incubated for 10 min at 37°C followed by reaction initiation by addition of 20 µL of 10 mM NADPH solution. The reaction plate was then incubated at 37°C for a predetermined time period following which it was quenched with 200 µL ACN for all CYPs and 200 µL 1% formic acid in water∶ACN (70∶30) for CYP1A2. In all cases, the final incubations after addition of substrate and inhibitor contained 0.1% DMSO (v/v), and the total organic solvent (DMSO and ACN) content was less than or equal to 1% (v/v). […] The incubations were performed in singlet for individual gingerols and in duplicate for GE along with respective positive controls.

[3] = target: T2, CYP2C8 (Homo sapiens, UniProt P10632); test: CYP2C8 inhibition in human liver microsomes (substrate amodiaquine); type: in vitro ADME
T2 sequence (P10632 1-490): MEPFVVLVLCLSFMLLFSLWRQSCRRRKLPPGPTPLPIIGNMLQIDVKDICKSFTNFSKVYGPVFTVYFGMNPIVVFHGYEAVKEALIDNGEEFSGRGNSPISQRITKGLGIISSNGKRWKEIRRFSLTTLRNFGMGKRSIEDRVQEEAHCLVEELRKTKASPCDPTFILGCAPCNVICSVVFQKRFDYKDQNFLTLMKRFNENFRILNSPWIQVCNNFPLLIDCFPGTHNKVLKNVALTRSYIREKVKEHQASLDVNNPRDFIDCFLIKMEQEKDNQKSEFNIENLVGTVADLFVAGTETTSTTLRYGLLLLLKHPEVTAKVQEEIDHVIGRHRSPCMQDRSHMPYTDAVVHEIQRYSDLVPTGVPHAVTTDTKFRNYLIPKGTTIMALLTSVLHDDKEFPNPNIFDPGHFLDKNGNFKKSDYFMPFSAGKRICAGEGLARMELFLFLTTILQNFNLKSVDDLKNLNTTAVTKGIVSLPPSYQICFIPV
Description: as §4, §5

[4] = test system: Caco-2 monolayer; test: Caco-2 permeability assay; conditions: 10 µM; for Intracellular (cell) accumulation: direction not given; for Papp: n = 3, mean ± SD
[5] = target: CYP2C19 (Homo sapiens, UniProt P33261); test: CYP2C19 inhibition in human liver microsomes (substrate (S)-mephenytoin); type: in vitro ADME
Description: as §4
(§6) A microsome-buffer-substrate mixture (MBS mix) was prepared for each isozyme by pre-mixing appropriate volumes of sodium phosphate buffer (pH 7.4, 50 mM), microsomes and substrate (Table S2 in File S1). 179 µL of MBS mix was transferred to 96-well reaction plate to which 1 µL of inhibitor stock solution was added to achieve the final target inhibitor concentration. The reaction plate was pre-incubated for 10 min at 37°C followed by reaction initiation by addition of 20 µL of 10 mM NADPH solution. The reaction plate was then incubated at 37°C for a predetermined time period following which it was quenched with 200 µL ACN for all CYPs and 200 µL 1% formic acid in water∶ACN (70∶30) for CYP1A2. In all cases, the final incubations after addition of substrate and inhibitor contained 0.1% DMSO (v/v), and the total organic solvent (DMSO and ACN) content was less than or equal to 1% (v/v). The details of final substrate concentration, incubation time, microsomal protein concentration in the reaction mixtures and the metabolites monitored for each isozyme tested are presented in Table S3 in File S1. The incubations were performed in singlet for individual gingerols and in duplicate for GE along with respective positive controls.
(§7) All samples were processed using protein precipitation method and analyzed by employing positive (for all CYPs) and negative (for CYP2A6, 2C19 and 2E1) ionization mode in liquid chromatography tandem mass spectrometry (API4000, Applied Biosystems, USA). The peak area ratio of analyte to IS was used for calculations. An isocratic method comprising 5 mM ammonium formate and ACN (40∶60) with 0.05% formic acid was used for elution. For CYP2C19, a mobile phase consisting of 5 mM ammonium formate and ACN (30∶70) was used. The analytes and internal standards were retained on BDS Hypersil Phenyl (150×4.6 mm, 5 µ, Thermo, USA) column. A flow rate of 0.5 mL/min (CYP1A2), 0.6 mL/min (CYP2C19, CYP2E1), 0.7 mL/min (CYP2C9), 0.8 mL/min (CYP2A6, CYP3A), 1.0 mL/min (CYP2B6, CYP2C8, CYP2D6) was maintained using Shimadzu Prominence solvent delivery system (LC-20AD). The mobile phase was degassed using degasser (DGU-20A3), samples were loaded into autosampler (SIL-HTc) and the column temperature was maintained at 40°C by column oven (CTO-20A). […]

[6] = humans, oral 2 g GE; as glucuronide and sulfate conjugates; cited from earlier work
[7] = target: T3, CYP3A4 (Homo sapiens, UniProt P08684); test: CYP3A4 inhibition in human liver microsomes (substrate midazolam); type: in vitro ADME; conditions: human liver microsomes; substrate midazolam; gingerols and GE
Description: as §4, §6, §7

[8] = target: T4, CYP2A6 (Homo sapiens, UniProt P11509); test: CYP2A6 inhibition in human liver microsomes (substrate coumarin); type: in vitro ADME
T4 sequence (P11509 1-494): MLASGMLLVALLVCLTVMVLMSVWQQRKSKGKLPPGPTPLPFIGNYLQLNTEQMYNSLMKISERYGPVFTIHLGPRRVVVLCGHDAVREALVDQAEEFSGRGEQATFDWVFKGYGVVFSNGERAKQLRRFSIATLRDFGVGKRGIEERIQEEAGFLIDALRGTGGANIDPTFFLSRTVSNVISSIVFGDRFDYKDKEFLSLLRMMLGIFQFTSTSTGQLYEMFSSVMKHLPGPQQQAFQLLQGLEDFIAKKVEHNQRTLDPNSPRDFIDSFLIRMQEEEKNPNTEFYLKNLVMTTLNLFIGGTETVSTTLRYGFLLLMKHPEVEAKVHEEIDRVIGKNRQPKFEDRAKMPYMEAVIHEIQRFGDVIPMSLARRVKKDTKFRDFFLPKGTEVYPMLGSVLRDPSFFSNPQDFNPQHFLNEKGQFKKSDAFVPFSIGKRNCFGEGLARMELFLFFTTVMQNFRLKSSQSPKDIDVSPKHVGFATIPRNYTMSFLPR
Description: as §4, §5

[9] = target: T5, CYP1A2 (Homo sapiens, UniProt P05177); test: CYP1A2 inhibition in human liver microsomes (substrate phenacetin); type: in vitro ADME
T5 construct: […]; tissue XenoTechLLC H0610
T5 sequence (P05177 1-516): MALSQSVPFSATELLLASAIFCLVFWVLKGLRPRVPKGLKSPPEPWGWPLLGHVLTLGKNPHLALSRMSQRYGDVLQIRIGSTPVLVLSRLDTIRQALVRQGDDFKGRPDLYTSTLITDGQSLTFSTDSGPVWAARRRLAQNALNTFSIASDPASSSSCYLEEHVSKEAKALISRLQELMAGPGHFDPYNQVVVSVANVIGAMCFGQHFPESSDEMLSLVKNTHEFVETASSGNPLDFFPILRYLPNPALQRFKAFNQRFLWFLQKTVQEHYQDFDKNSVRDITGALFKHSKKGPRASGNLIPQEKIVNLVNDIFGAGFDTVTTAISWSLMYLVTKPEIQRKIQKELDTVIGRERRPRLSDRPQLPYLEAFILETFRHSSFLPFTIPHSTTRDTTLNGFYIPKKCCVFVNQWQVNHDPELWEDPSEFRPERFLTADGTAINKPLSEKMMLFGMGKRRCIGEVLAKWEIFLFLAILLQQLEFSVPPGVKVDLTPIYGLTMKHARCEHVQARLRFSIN
Description: as §4, §5

[10] = target: CYP2D6 (Homo sapiens, UniProt P10635); test: CYP2D6 inhibition in human liver microsomes (substrate dextromethorphan); type: in vitro ADME
Description: as §4, §6, §7

[11] = target: CYP2E1 (Homo sapiens, UniProt P05181); test: CYP2E1 inhibition in human liver microsomes (substrate chlorzoxazone)
Description: as §1, §2
All samples were processed using protein precipitation method and analyzed by employing positive (for all CYPs) and negative (for CYP2A6, 2C19 and 2E1) ionization mode in liquid chromatography tandem mass spectrometry (API4000, Applied Biosystems, USA). The peak area ratio of analyte to IS was used for calculations. An isocratic method comprising 5 mM ammonium formate and ACN (40∶60) with 0.05% formic acid was used for elution. For CYP2C19, a mobile phase consisting of 5 mM ammonium formate and ACN (30∶70) was used. The analytes and internal standards were retained on BDS Hypersil Phenyl (150×4.6 mm, 5 µ, Thermo, USA) column. A flow rate of 0.5 mL/min (CYP1A2), 0.6 mL/min (CYP2C19, CYP2E1), 0.7 mL/min (CYP2C9), 0.8 mL/min (CYP2A6, CYP3A), 1.0 mL/min (CYP2B6, CYP2C8, CYP2D6) was maintained using Shimadzu Prominence solvent delivery system (LC-20AD). The mobile phase was degassed using degasser (DGU-20A3), samples were loaded into autosampler (SIL-HTc) and the column temperature was maintained at 40°C by column oven (CTO-20A). Injection volumes for the samples were as follows: 5 µL (CYP1A2, CYP2D6, and CYP3A), 10 µL (CYP2B6, CYP2C8, and CYP2E1) and 20 µL (CYP2A6, CYP2C9, and CYP2C19). Data was collected and processed using Sciex Analyst 1.4.2. All the structures of inhibitors, substrates, metabolites and internal standards for each CYP enzyme are represented in Table S6 in File S1.
The IC50 value was estimated from the percentage reduction in CYP activity at eleven inhibitor concentrations with respect to control.
as §3

[12] = target: T3, CYP3A4; test: CYP3A4 inhibition in human liver microsomes (substrate testosterone); type: in vitro ADME
Description: as §4, §5

[13] = human liver microsomes, substrate diclofenac, gingerols and GE
[14] = human liver microsomes, substrate bupropion, gingerols and GE
[15] = human liver microsomes, substrate amodiaquine, gingerols and GE
[16] = human liver microsomes, substrate (S)-mephenytoin, gingerols and GE
[17] = human liver microsomes, substrate coumarin, gingerols and GE
[18] = human liver microsomes, substrate phenacetin, gingerols and GE
[19] = human liver microsomes, substrate dextromethorphan, gingerols and GE
[20] = human liver microsomes, substrate chlorzoxazone, gingerols and GE
[21] = human liver microsomes, substrate testosterone, gingerols and GE

CYP2C9, sequence (P11712 whole entry): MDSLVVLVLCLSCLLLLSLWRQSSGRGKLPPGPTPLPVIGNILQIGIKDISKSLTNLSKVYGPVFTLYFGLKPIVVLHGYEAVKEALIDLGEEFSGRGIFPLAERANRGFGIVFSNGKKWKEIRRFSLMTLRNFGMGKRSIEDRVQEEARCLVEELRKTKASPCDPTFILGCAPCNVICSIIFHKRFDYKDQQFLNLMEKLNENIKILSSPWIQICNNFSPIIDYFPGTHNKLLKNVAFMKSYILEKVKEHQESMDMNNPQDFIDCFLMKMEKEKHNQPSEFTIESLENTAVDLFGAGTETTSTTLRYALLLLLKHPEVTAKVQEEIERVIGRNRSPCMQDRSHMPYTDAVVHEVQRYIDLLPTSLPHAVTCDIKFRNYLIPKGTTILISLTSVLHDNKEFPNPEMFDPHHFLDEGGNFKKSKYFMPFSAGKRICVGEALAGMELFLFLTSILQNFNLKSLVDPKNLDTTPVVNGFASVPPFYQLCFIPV
CYP2D6, sequence (P10635 whole entry): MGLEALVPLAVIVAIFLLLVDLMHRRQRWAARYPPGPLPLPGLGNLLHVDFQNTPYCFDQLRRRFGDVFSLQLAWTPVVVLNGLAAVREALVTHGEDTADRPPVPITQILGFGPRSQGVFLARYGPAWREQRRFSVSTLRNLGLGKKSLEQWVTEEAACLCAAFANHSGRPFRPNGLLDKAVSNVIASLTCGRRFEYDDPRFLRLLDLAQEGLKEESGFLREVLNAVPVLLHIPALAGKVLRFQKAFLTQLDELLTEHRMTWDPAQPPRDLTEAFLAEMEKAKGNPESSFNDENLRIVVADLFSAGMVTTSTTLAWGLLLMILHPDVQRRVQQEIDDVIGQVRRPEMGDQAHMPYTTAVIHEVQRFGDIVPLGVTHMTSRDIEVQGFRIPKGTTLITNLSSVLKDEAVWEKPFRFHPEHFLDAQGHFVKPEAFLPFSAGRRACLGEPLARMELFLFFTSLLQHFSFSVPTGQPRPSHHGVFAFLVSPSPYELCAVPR
CYP2C19, sequence (P33261 whole entry): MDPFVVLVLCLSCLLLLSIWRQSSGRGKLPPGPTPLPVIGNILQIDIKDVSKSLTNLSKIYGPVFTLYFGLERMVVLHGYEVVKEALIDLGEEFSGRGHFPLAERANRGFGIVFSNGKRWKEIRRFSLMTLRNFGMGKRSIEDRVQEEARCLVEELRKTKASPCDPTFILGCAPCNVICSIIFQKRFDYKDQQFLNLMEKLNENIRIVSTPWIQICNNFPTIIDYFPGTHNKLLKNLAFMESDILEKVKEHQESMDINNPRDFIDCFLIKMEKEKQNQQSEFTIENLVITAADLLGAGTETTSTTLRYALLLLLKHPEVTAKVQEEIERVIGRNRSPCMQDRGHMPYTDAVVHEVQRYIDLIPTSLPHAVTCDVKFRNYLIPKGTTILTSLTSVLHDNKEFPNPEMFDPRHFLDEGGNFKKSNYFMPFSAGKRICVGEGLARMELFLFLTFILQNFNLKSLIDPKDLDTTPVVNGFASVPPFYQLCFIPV
T3 sequence (P08684 2-503): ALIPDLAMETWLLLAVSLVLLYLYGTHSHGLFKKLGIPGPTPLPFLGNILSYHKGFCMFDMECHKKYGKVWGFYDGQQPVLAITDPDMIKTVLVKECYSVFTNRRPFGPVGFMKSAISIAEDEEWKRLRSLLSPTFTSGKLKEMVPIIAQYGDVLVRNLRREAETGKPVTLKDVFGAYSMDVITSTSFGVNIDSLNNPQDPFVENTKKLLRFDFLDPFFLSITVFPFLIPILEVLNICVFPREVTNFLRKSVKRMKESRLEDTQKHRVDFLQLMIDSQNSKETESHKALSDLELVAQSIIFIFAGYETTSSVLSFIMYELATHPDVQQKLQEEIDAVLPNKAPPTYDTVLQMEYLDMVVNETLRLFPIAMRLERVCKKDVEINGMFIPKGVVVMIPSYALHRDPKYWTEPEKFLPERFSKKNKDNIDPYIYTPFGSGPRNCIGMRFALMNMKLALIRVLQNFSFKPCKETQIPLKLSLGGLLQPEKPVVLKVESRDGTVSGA
CYP2E1, sequence (P05181 whole entry): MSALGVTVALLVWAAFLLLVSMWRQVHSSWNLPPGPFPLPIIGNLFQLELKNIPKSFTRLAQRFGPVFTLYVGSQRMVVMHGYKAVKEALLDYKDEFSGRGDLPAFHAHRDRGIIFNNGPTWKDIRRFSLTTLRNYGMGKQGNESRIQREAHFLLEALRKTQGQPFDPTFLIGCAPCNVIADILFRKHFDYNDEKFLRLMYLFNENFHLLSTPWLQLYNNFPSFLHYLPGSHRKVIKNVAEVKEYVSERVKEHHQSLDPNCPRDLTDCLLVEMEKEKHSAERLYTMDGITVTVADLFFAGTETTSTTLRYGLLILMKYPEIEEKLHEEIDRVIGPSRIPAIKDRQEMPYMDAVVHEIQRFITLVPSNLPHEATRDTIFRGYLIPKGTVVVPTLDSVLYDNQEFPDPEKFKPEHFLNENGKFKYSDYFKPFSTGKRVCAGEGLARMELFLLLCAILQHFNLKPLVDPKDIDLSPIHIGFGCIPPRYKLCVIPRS

Row | SMILES | IC50 CYP2C9 [1, 13] [µg/mL] | IC50 CYP2B6 [2, 14] [µg/mL] | IC50 CYP2C8 [3, 15] [µg/mL] | Intracellular (cell) accumulation [4] | Intracellular accumulation ([4]; A→B) [%] | Papp ([4]; A→B) [×10⁻⁶ cm/s] | Intracellular accumulation ([4]; B→A) [%] | Papp ([4]; B→A) [×10⁻⁶ cm/s] | IC50 CYP2C19 [5, 16] [µg/mL] | Cmax / circulating concentration in humans [6] [ng/mL] | IC50 CYP3A4 (midazolam) [7] [µg/mL] | IC50 CYP2A6 [8, 17] [µg/mL] | IC50 CYP1A2 [9, 18] [µg/mL] | IC50 CYP2D6 [10, 19] [µg/mL] | IC50 CYP2E1 [11, 20] [µg/mL] | IC50 CYP3A4 (testosterone) [12, 21] [µg/mL] | Efflux Ratio [4] | other results
1 | CCCCC/C=C/C(=O)CCc1ccc(O)c(OC)c1 [6S, 6-shogaol] | 0.9 (≈ 3.26 µM) | 1.6 (≈ 5.79 µM) | 0.8 (≈ 2.89 µM) | almost no accumulation | 0 | 0.071 ± 0.014 | 1 | 0.4 ± 0.2 | 1.1 (≈ 3.98 µM) | 150 ± 120 | 18 (≈ 65.1 µM) | 23 (≈ 83.2 µM) | 0.7 (≈ 2.53 µM) | 24 (≈ 86.8 µM) | 21 (≈ 76 µM) | 2.3 (≈ 8.32 µM) |  | 
2 | CCCCCCC[C@H](O)CC(=O)CCc1ccc(O)c(OC)c1 [8G, 8-gingerol] | 2.8 (≈ 8.68 µM) | 2.6 (≈ 8.06 µM) | 0.70 (≈ 2.17 µM) | < 1% | 14 | 5.3 ± 0.8 | 12 | 6.9 ± 0.6 | 2.6 (≈ 8.06 µM) | 230 ± 160 | >32 | 19 (≈ 58.9 µM) | 8.8 (≈ 27.3 µM) | 24 (≈ 74.4 µM) | 30 (≈ 93 µM) | 2.6 (≈ 8.06 µM) | 1.3 | 
3 | CCCCCCCCC[C@H](O)CC(=O)CCc1ccc(O)c(OC)c1 [10G, 10-gingerol] |  |  |  | 15% | 15 | 0.9 ± 0.7 | 10 | 1.7 ± 0.6 |  | 530 ± 400 | >35 |  |  |  |  |  | 1.8 | IC50 CYP2C9 ([1]; microsomes): 2.6 µg/mL (≈ 7.42 µM); IC50 CYP2B6 ([2]; microsomes): 1.5 µg/mL (≈ 4.28 µM); IC50 CYP2C8 ([3]; microsomes): 0.7 µg/mL (≈ 2 µM); IC50 CYP2C19 ([5]; microsomes): 2.3 µg/mL (≈ 6.56 µM); IC50 CYP2A6 ([8]; microsomes): 34 µg/mL (≈ 97 µM); IC50 CYP1A2 ([9]; microsomes): > 35 µg/mL; IC50 CYP2D6 ([10]; microsomes): 19 µg/mL (≈ 54.2 µM); IC50 CYP2E1 ([11]; microsomes): >35 µg/mL; IC50 CYP3A4 (testosterone) ([12]; microsomes): 2.5 µg/mL (≈ 7.13 µM)
